Assay results: patent US20220072149A1, “BIOLOGICALLY ACTIVE CLUSTER OF MOLECULES” (priority 2018, published 2022)

Columns and labels:
[1] = tested on: HeLa cells; assay: HeLa cell viability assay (MTS): inhibition of SO1861-mediated endosomal escape by polymeric structures; type: cell-based, human; conditions: […] dianthin-EGF + SO1861 curve, PAMAM 500 nM, chloroquine 500 nM, dendron 667 nM, 72 hr
Procedure: HeLa cells were seeded in DMEM (PAN-Biotech GmbH) supplemented with 10% fetal bovine serum (PAN-Biotech GmbH) and 1% penicillin/streptomycin (PAN-Biotech GmbH), in a 96 well plate at 5,000 c/w in 100 μL/well and incubated overnight at 37° C. and 5% CO2. The next day 20× concentrated stocks of the PAMAM, PAMAM-conjugates, G4-dendron (prepared in Example 3) or chloroquine (Sigma Aldrich) samples were prepared in DMEM. The media was removed from the cell culture plate and replaced by […] culture media, followed by the addition of 10 μL sample/well (from the 20× concentrated stocks) and a 45 min incubation at 37° C. […] Followed by 15 sec sonication and a brief re-heating at 50° C. for 1 min, while shaking at 1,250 rpm. Subsequently a serial dilution of SO1861 was prepared in PBS.
As control for the inhibition of endosomal acidification chloroquine was used.

[2] = tested on: HER14 cells; assay: viability assay with HER14 cells (MTT); type: cell-based; conditions: 0.1 nM dianthin-EGF, 72 h
Procedure: To test the efficacy of the invention, we conducted a viability assay with HER14 cells. These cells are fibroblasts stably transfected with the human epidermal growth factor receptor and therefore target cells for the targeted toxin dianthin-EGF. HER14 cells (2,000 cells/100 μL/well) were seeded into wells of 96-well-cell culture plates and incubated for 24 h in DMEM medium supplemented with 10% fetal calf serum and 1% penicillin/streptomycin at 37° C., 5% CO2 and 98% humidity. The different test substances (see results and FIG. 21) were then added in triplicates in a volume of 25 μL and supplemented with further 25 μL of medium. After an incubation of 72 h, 30 μL 3-(4,5-dimethylthiazol-2-yl)-2,5-diphenyltetrazolium bromide (0.5 mg/mL in water) was added per well and incubated for 2 h. Thereafter, the medium was carefully removed and replaced by an aqueous solution containing 10% (v/v) isopropanol, 5% (w/v) sodium dodecyl sulfate and 400 mM HCl, and incubated for 5 min. Solubilized formazan was photometrically quantitated at […] in a microplate reader (Spectra MAX 340 PC, Molecular Devices, Sunnyvale, Calif., USA). Untreated cells were normalized to 1 and all samples referred to the untreated control. Significance was determined by unpaired two-sample t-tests.

SMILES | inhibition of SO1861-mediated endosomal escape of the targeted toxin and subsequent cell killing [1] | effect on the toxicity of dianthin-EGF [2]
CCN(CC)CCCC(C)Nc1ccnc2cc(Cl)ccc12 (centres unmarked) [chloroquine] | inhibit | –
C[C@@H]1O[C@@H](O[C@H]2[C@H](OC(=O)[C@]34CCC(C)(C)C[C@H]3C3=CC[C@@H]5[C@@]6(C)CC[C@H](O[C@H]7O[C@H](C(=O)O)[C@@H](O)[C@H](O[C@@H]8OC[C@@H](O)[C@H](O)[C@H]8O)[C@H]7O[C@@H]7O[C@H](CO)[C@H](O)[C@H](O)[C@H]7O)[C@@](C)(C=O)[C@@H]6CC[C@@]5(C)[C@]3(C)CC4)O[C@H](C)[C@H](O[C@@H]3O[C@H](C)[C@@H](O)[C@H](O)[C@H]3O)[C@@H]2O)[C@H](O)[C@H](O)[C@H]1O[C@@H]1OC[C@@H](O)[C@H](O[C@@H]2OC[C@@H](O)[C@H](O)[C@H]2O)[C@H]1O [SA1641] | – | death of al cells
